# “And” between values parts separate entries of the source, which are not always exact repeats. Equal entries are not always repeated. Where two headings read alike, the source gives them in different places.
# Legend:
# [1] = Storage stability of quality control sample in human urine at −20° C.; format: physicochemical; conditions: storage temperature of −20° C.
# Description: In method I, the mobile phase of liquid chromatography was run on 0.1% formic acid in acetonitrile, and the elution volume was 10 ul. In method II, the mobile phase was run in 0.1% formic acid in methanol/water (98/2, volume to volume), and the elution volume was 5 ul.
# [2] = format: physicochemical, human; conditions: for Bench top stability, Mean concentration / Bench top stability, RE % (mean vs nominal): human, 22.5 h
# Description: The following samples were also analyzed either in conjunction with one of the precision and accuracy runs or in one of the additional validation runs. Samples from six lots of control human plasma for specificity. Samples from six lots of control human plasma fortified with internal standard for specificity. Two concentration levels of unextracted QC-samples in triplicate (solvent standards) were analyzed for the evaluation of the recovery of sodium 2,2-dimethylbutyrate and DMV in human plasma. Two levels of QC samples (Low QC and High QC in triplicate) were subjected to three freeze/thaw cycles at approximately −70° C. prior to extraction to evaluate freeze/thaw stability. […] Triplicate low QC samples and triplicate high QC samples were stored for one month and three months in a freezer at approximately −70° C., and then extracted and analyzed to evaluate long term stability in human plasma. Two levels of extracted QC samples (Low QC and High QC) were re-analyzed after approximately 71 hours in the autosampler at room temperature to evaluate the extract autosampler stability. Two levels of extracted QC samples (Low QC and High QC) were re-analyzed after approximately 8 hours in the freezer at approximately −20° C. to evaluate the extract freeze stability. Three aliquots of a dilution QC sample diluted 10-fold. Triplicate dilutions of the old stock solution (stored at approximately 4° C.) and new stock solutions prepared at intervals of two weeks and one month. Statistical calculations in the report tables were calculated from unrounded concentration values taken directly from the raw data. The concentration values were rounded for display purposes.
# Triplicate QC-Low and QC-High samples were extracted and analyzed after these storage conditions. The CV % values for the QC-Low and QC-High stability samples are 7.8% and 2.9%, respectively. To calculate the RE %, the measured mean concentration was compared to the nominal concentration. The RE % values for the QC-Low and QC-High stability samples are 11.8% and −3.4%, respectively.
# [3] = Long-term freezer stability in dog plasma; format: physicochemical; conditions: approximately −70° C.
# Description: For the remaining validation tests, a calibration curve and triplicates QCs at the low, mid and high levels were analyzed with each sample set. The following samples were also analyzed either in conjunction with one of the precision and accuracy runs or in one of the additional validation runs: Samples from six lots of control dog plasma for specificity. Two concentration levels of unextracted QC-samples in triplicate (solvent standards) were analyzed for the evaluation of the recovery of sodium 2,2-dimethylbutyrate and DMV in dog plasma. Two levels of QC samples (Low QC and High QC in triplicate) were subjected to three freeze/thaw cycles at approximately −70° C. prior to extraction to evaluate freeze/thaw stability. Two levels of QC samples (Low QC and High QC in triplicate) were placed on the bench top for approximately 17 hours prior to extraction for the evaluation of the bench top stability. Triplicate low QC samples and triplicate high QC samples were stored for one month and three months in a freezer at approximately −70° C., and then extracted and analyzed to evaluate long term stability in dog plasma. Three aliquots of a dilution QC sample diluted 10-fold. QC-Low and QC-High plasma samples, which had been stored in a freezer at approximately −70° C. for one month and three months (99 days), were extracted in triplicate and analyzed. All CV % values and RE % values are within the acceptance criteria (≦15% and ±15% respectively). Therefore, sodium 2,2-dimethylbutyrate can be considered stable in dog plasma at approximately −70° C. for at least […].
# [4] = 1 Month Interval, QC-High, nominal 40.0 μg/mL
# [5] = 1 Month Interval, QC-Low, nominal 0.60 μg/mL
# [6] = 3 Month Interval (99 days), QC-High, nominal 40.0 μg/mL
# [7] = 3 Month Interval (99 days), QC-Low, nominal 0.60 μg/mL
smiles,measurement,setting,value
"CCC(C)(C)C(=O)[O-].[Na+] [Sodium 2,2-Dimethylbutyrate]",Time quality control sample is stable,[1],at least 111 days
same,Time stable on bench top,"[2]; human plasma, ambient bench top storage",22.5 h
same,"Bench top stability, Mean concentration",[2]; 0.6 μg/mL,0.671 µg/mL
same,"Bench top stability, RE % (mean vs nominal)",[2]; 0.6 μg/mL,11.8%
same,"Bench top stability, Mean concentration",[2]; 40 μg/mL,38.7 µg/mL
same,"Bench top stability, RE % (mean vs nominal)",[2]; 40 μg/mL,−3.4%
same,Time stable in freezer,[3],at least 99 days
same,"Long-term freezer stability, Mean concentration",[3]; [4],36.1 µg/mL
same,"Long-term freezer stability, RE % (mean vs nominal)",[3]; [4],−9.9%
same,"Long-term freezer stability, concentration found (replicate)",[3]; [4],36.4 µg/mL and 36.3 µg/mL and 35.5 µg/mL
same,"Long-term freezer stability, Mean concentration",[3]; [5],0.575 µg/mL
same,"Long-term freezer stability, RE % (mean vs nominal)",[3]; [5],−4.2%
same,"Long-term freezer stability, concentration found (replicate)",[3]; [5],0.586 µg/mL and 0.567 µg/mL and 0.572 µg/mL
same,"Long-term freezer stability, Mean concentration",[3]; [6],35.0 µg/mL
same,"Long-term freezer stability, RE % (mean vs nominal)",[3]; [6],−12.5%
same,"Long-term freezer stability, concentration found (replicate)",[3]; [6],36.1 µg/mL and 37.1 µg/mL and 31.7 µg/mL
same,"Long-term freezer stability, Mean concentration",[3]; [7],0.61 µg/mL
same,"Long-term freezer stability, RE % (mean vs nominal)",[3]; [7],1.0%
same,"Long-term freezer stability, concentration found (replicate)",[3]; [7],0.629 µg/mL and 0.621 µg/mL and 0.568 µg/mL

# Reference: patent US20110033946A1, “DETECTION OF SHORT-CHAIN FATTY ACIDS IN BIOLOGICAL SAMPLES” (HEMAQUEST PHARMACEUTICALS, INC., priority 2009, published 2011)
